Assays:
[1] = tested on: Human Umbilical Vein Endothelial Cells (HUVECs); test: Reprogramming of four factor-transduced HUVECs using metabolism modulating compounds; details: four factor (Klf, Sox, Myc, Oct)-transduced HUVECs, 20,000 cells per well, three weeks; DNP 1 μM, NOG 1 μM, QC 1 μM, OA 10 μM, F2,6P 10 mM
Method: (§1) Four factor (Klf, Sox, Myc, and Oct)-transduced HUVECs were seeded at a density of 20,000 transduced cells per well, treated with metabolism modulating compounds for three weeks and TRA-1-81 positive colonies were counted. F2,6P, 10 mM Fructose 2,6-bisphosphate; F6P, 10 mM Fructose 6-phosphate; 6-AN, 10 μM 6-aminonicotinamide; OA, 10 μM oxalate; DNP, 1 μM 2,4-dinitrophenol; NOG, 1 μM N-oxalylglycine; QC, 1 μM Quercetin; 2-HA, 10 μM 2-Hydroxyglutaric acid; NA, 10 μM nicotinic acid; DMSO was used as a control.

[2] = tested on: Neonatal Human Epidermal Keratinocytes (NHEKs); test: Reprogramming of transduced NHEKs to iPSCs, TRA-1-81 positive colonies; details: for reprogramming of NHEKs, TRA-1-81 positive colonies (in words): three factor (Klf, Sox, Oct)-transduced NHEKs, 100,000 cells per well, four weeks, 2-DG 10 mM
Method: The culture was split by Accutase (Millipore) and treated with 1 μM Thiazovivin (Stemgent) in the first day after splitting.

[3] = tested on: NHEKs; test: Lactate production in the medium as index of glycolysis (Lactate Assay Kit); details: NHEKs treated 8 d with PS48, PS48 and UCN-01, or PS48 and 2-DG
Method: as §1

[4] = tested on: GLUT1, HK2, PFK1 and LDHA; test: Expression of key glycolytic genes after treatment; details: PS48 treatment
Method: as §1

## O=[N+]([O-])c1ccc(O)c([N+](=O)[O-])c1 [2,4-dinitrophenol]
[1]
  effect on reprogramming, TRA-1-81 positive colonies (in words): enhance reprogramming

## O=CC[C@@H](O)[C@H](O)[C@H](O)CO [2-Deoxy-D-glucose]
[2]
  reprogramming of NHEKs, TRA-1-81 positive colonies (in words): inhibited reprogramming process
[3]
  glycolysis, lactate production in the medium (in words): inhibited glycolysis

## O=P(O)(O)OC[C@H]1O[C@@](CO)(OP(=O)(O)O)[C@@H](O)[C@@H]1O [Fructose 2,6-bisphosphate]
[1]
  effect on reprogramming, TRA-1-81 positive colonies (in words): corresponding consistent effects on reprogramming

## O=C(O)CNC(=O)C(=O)O [N-oxalylglycine]
[1]
  effect on reprogramming, TRA-1-81 positive colonies (in words): enhance reprogramming

## CCCC(=O)[O-].[Na+] [NaB, sodium butyrate]
[2]; NHEKs, OCT4 + KLF4, 0.25 mM NaB compared with 0.5 mM VPA
  generation of iPSCs under OK condition (in words): much more reliable and efficient than the previously reported 0.5 mM VPA

## O=C(O)/C=C(/CCc1ccc(Cl)cc1)c1ccccc1 [PS48, (Z)-5-(4-Chlorophenyl)-3-phenylpent-2-enoic acid]
[2]; NHEKs transduced with OK (OCT4 + KLF4), treated with 0.5 μM PD0325901 and 0.5 μM A-83-01
  enhancement of reprogramming efficiency: about fifteen
[2]
  reprogramming of NHEKs, TRA-1-81 positive colonies (in words): enhanced reprogramming
[4]
  expression of key glycolytic genes GLUT1, HK2, PFK1 and LDHA (in words): up-regulated
[3]
  glycolysis, lactate production in the medium (in words): facilitated/activated a metabolic switch to glycolysis

## O=c1c(O)c(-c2ccc(O)c(O)c2)oc2cc(O)cc(O)c12 [Quercetin, 3,3′,4′,5,7-pentahydroxyflavone]
[1]
  effect on reprogramming, TRA-1-81 positive colonies (in words): corresponding consistent effects on reprogramming

## CN[C@@H]1C[C@H]2O[C@@](C)([C@@H]1OC)n1c3ccccc3c3c4c(c5c6ccccc6n2c5c31)C(=O)N[C@@H]4O [UCN-01]
[2]
  reprogramming of NHEKs, TRA-1-81 positive colonies (in words): inhibited reprogramming process
[3]
  glycolysis, lactate production in the medium (in words): inhibited glycolysis

## O=C(O)C(=O)O [oxalate]
[1]
  effect on reprogramming, TRA-1-81 positive colonies (in words): inhibit reprogramming

— patent US10738281B2, “Reprogramming cells” (The Scripps Research Institute, priority 2010, dated 2020)
